Laboratory results as given in paper PMC12985397 (Experimental cell research, 2009).

Target: histamine H1 receptor (H1R) (Homo sapiens, UniProt P35367)
Test: [3H]-thymidine incorporation in CHO-H1R cells
Type: cell-based

Chain of histamine H1 receptor (H1R) (P35367 whole entry): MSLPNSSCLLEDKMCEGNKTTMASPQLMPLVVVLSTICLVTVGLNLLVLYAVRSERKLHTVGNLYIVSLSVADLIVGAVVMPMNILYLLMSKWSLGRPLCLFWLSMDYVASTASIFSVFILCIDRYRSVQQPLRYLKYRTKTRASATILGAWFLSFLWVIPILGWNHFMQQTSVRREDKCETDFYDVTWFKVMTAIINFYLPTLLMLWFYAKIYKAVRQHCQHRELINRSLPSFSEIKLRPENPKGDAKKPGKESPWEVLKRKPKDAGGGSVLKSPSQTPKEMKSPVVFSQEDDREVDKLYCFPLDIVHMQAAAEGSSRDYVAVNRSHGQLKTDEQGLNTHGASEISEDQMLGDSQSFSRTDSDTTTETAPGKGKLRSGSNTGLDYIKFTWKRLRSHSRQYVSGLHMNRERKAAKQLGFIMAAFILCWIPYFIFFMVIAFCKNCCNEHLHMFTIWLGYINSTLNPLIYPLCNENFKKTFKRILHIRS

- EC50: 23.1 ± 3.6 µM
SMILES: NCCc1cnc(-c2cccc(C(F)(F)F)c2)[nH]1 [H1, 2,3-trifluormetilfenilhistamine]
